Assays:
[1] = system: NO metabolite (NOx:NO2+NO3); assay: Plasma NO metabolite (NOx) after oral administration to rabbits (Experimental Example 2); assay type: in vivo; conditions: male New Zealand rabbits, fasted 16 hr, oral by sonde, groups 1 and 2: 2.85 mmol/kg, group 3: 1.43 mmol/kg each
Procedure: (§1) 14-Week-old male New Zealand rabbits (KITAYAMA LABES Co., Ltd.) were purchased, preliminarily bred for 28 days and divided into 3 groups (n=3 or 4). After fasting for 16 hr, L-citrulline and L-arginine were orally administered to the rabbits of group 1 and group 2, respectively, by a sonde to achieve 2.85 mmol/kg per rabbit for both (499.3 mg/kg and 496.5 mg/kg, respectively). Moreover, L-citrulline and L-arginine were orally administered to the rabbits of group 3 by a sonde to achieve 1.43 mmol/kg per rabbit (250.5 mg/kg and 249.1 mg/kg, respectively).
(§2) The blood was collected from the ear vein before administration, and 30 min, 1, 2 and 4 hr after administration, and subjected to quantification of L-arginine, NO metabolite and cGMP in plasma. The blood was collected in a 1.5 mL tube containing 1% heparin dispensed thereto in advance (for quantification of L-arginine) and a disodium ethylenediaminetetraacetate (EDTA-2Na)-added tube (for quantification of NO metabolite and cGMP), and centrifuged (12000 rpm, 10 min, 4° C.) to give plasma. In heparin plasma thereafter, 3% sulfosalicylic acid in the same amount as the plasma was added and blended, and the mixture was stood still on ice for 1 hr and centrifuged (12000 rpm, 10 min, 4° C.) to give deproteinized plasma as a sample for analysis.
(§3) L-arginine in the sample for analysis was quantified using an automatic amino acid analyzer (JOEL JLC-500/V), NO metabolite (NOx:NO2+NO3) was quantified using a nitrogen oxide analyzer (Eicom ENO10), and cGMP was quantified by […] (Amersham Pharmacia RPN226).
(§4) Moreover, the area under the blood concentration-time curves of L-arginine, NO metabolite and cGMP in plasma were calculated, and the results are shown in Table 2-Table 4.

cGMP = assay: Plasma cGMP after oral administration to rabbits (Experimental Example 2); assay type: in vivo; conditions: male New Zealand rabbits, fasted 16 hr, oral by sonde, groups 1 and 2: 2.85 mmol/kg, group 3: 1.43 mmol/kg each
Procedure: as §1, §2, §3, §4

NC(=O)NCCC[C@H](N)C(=O)O [group 1, L-citrulline]
AUC of NO metabolite in plasma, 0-30 min [1]: 8.1 nmol·h/mL
AUC of NO metabolite in plasma, 0-1 hr [1]: 25.7 nmol·h/mL
AUC of cGMP in plasma, 0-30 min (cGMP): 0.033 nmol·h/mL
AUC of cGMP in plasma, 0-1 hr (cGMP): 0.12 nmol·h/mL

N=C(N)NCCC[C@H](N)C(=O)O [group 2, L-arginine]
AUC of NO metabolite in plasma, 0-30 min [1]: 0.3 nmol·h/mL
AUC of NO metabolite in plasma, 0-1 hr [1]: 10.1 nmol·h/mL
AUC of cGMP in plasma, 0-30 min (cGMP): 0.028 nmol·h/mL
AUC of cGMP in plasma, 0-1 hr (cGMP): 0.10 nmol·h/mL
